Reference: patent publication US20210395256A1, “TYROSINE KINASE INHIBITORS, COMPOSITIONS AND METHODS THERE OF” (Betta Pharmaceuticals Co., Ltd., priority 2018, published 2021)
pIC50: −log10 of the molar value.

Each compound was assayed against TrkA kinase (Homo sapiens, UniProt P04629) (assay: TrkA kinase assay (mobility shift assay)). Conditions: class symbols; read-out: Trk A Kinase IC50.
Format: biochemical
Procedure, shortened: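 Caliper mobility-shift readout of FAM-labelled peptide conversion by TrkA in 50 mM HEPES pH 7.5, 0.0015% Brij-35, with ATP; enzyme preincubated 10 min with compound (10-point dilution), reaction at 28 °C, EDTA stop. Inhibition relative to DMSO and no-enzyme controls; IC50 by four-parameter fit.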

TrkA kinase, sequence (P04629 33-796): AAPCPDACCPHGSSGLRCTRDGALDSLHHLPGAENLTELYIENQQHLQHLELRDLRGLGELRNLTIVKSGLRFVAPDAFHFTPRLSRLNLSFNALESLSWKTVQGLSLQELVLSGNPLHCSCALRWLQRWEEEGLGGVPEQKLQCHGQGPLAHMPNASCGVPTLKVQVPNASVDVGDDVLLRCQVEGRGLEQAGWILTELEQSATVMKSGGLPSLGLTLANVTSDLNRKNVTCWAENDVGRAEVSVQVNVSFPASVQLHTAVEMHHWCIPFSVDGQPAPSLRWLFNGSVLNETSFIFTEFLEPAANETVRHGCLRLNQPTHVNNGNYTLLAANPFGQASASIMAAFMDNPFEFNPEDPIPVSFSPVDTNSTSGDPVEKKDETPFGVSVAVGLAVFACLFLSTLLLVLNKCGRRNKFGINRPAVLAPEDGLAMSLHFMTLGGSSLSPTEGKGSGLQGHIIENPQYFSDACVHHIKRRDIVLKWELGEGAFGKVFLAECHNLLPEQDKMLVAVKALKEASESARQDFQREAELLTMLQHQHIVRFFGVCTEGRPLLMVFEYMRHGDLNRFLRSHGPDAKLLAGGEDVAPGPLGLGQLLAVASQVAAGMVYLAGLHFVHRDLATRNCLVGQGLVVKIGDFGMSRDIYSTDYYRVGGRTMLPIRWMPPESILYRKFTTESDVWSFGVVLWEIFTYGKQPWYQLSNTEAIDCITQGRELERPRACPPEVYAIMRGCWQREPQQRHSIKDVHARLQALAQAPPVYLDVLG

First: COc1cc2nc(-c3cnn4ccc(N5CCC[C@@H]5c5cc(F)ccc5F)nc34)[nH]c2cc1C(=O)NO [Compound 89, (R)-2-(5-(2-(2,5-difluorophenyl)pyrrolidin-1-yl)pyrazolo[1,5-a]pyrimidin-3-yl)-N-hydroxy-5-methoxy-1H-benzo[d]imidazole-6-carboxamide]
Second: COC(=O)Oc1cc2nc(-c3cnn4ccc(N5CCC[C@@H]5c5cc(F)ccc5F)nc34)[nH]c2cc1OC(=O)OC [Compound 115, (R)-2-(5-(2-(2,5-difluorophenyl)pyrrolidin-1-yl)pyrazolo[1,5-a]pyrimidin-3-yl)-1H-benzo[d]imidazole-5,6-diyl dimethyl bis(carbonate)]
The pIC50 of the first is higher: 7.30 to 8.00 for the first, under 7.30 for the second.

`CC(O)c1cc2nc(-c3cnn4ccc(N5CCC[C@@H]5c5cc(F)ccc5F)nc34)oc2cc1F` (stereo partly drawn) [Compound 93, 1-(2-(5-((R)-2-(2,5-difluorophenyl)pyrrolidin-1-yl)pyrazolo[1,5-a]pyrimidin-3-yl)-6-fluorobenzo[d]oxazol-5-yl)ethan-1-ol] and `Fc1ccc(F)c([C@H]2CCCN2c2ccn3ncc(-c4nc5ccc(F)nc5[nH]4)c3n2)c1` [Compound 108, (R)-2-(5-(2-(2,5-difluorophenyl)pyrrolidin-1-yl)pyrazolo[1,5-a]pyrimidin-3-yl)-5-fluoro-3H-imidazo[4,5-b]pyridine] cannot be ordered by pIC50: at least 8.00 for the first, at least 8.00 for the second.

`Cc1ccc2nc(-c3cnn4ccc(N5CCC[C@@H]5c5cc(F)ccc5F)nc34)[nH]c2n1` [Compound 106, (R)-2-(5-(2-(2,5-difluorophenyl)pyrrolidin-1-yl)pyrazolo[1,5-a]pyrimidin-3-yl)-5-methyl-3H-imidazo[4,5-b]pyridine] and `N#Cc1ccc2nc(-c3cnn4ccc(N5CCC[C@@H]5c5cc(F)ccc5F)nc34)[nH]c2c1` [Compound 107, (R)-2-(5-(2-(2,5-difluorophenyl)pyrrolidin-1-yl)pyrazolo[1,5-a]pyrimidin-3-yl)-1H-benzo[d]imidazole-6-carbonitrile] cannot be ordered by pIC50: at least 8.00 for the first, at least 8.00 for the second.

Compound `Fc1ccc(F)c([C@H]2CCCN2c2ccn3ncc(-c4nc5cc(OC(F)F)c(OC(F)F)cc5[nH]4)c3n2)c1` [Compound 109, (R)-3-(5,6-bis(difluoromethoxy)-1H-benzo[d]imidazol-2-yl)-5-(2-(2,5-difluorophenyl)pyrrolidin-1-yl)pyrazolo[1,5-a]pyrimidine] has a pIC50 of at least 8.00.

Same assay, conditions: numeric values; read-out: Trk A Kinase IC50

`Cc1cc2[nH]c(-c3cnn4ccc(N5CCC[C@@H]5c5cc(F)ccc5F)nc34)nc2cn1` [Compound 86, (R)-2-(5-(2-(2,5-difluorophenyl)pyrrolidin-1-yl)pyrazolo[1,5-a]pyrimidin-3-yl)-6-methy1-1H-imidazo[4,5-c]pyridine] and `Cc1cncc2nc(-c3cnn4ccc(N5CCC[C@@H]5c5cc(F)ccc5F)nc34)[nH]c12` [Compound 99, (R)-2-(5-(2-(2,5-difluorophenyl)pyrrolidin-1-yl)pyrazolo[1,5-a]pyrimidin-3-yl)-7-methyl-1H-imidazo[4,5-c]pyridine] are within 0.2 log units of each other in pIC50: 9.12 for the first, 9.30 for the second.

`Nc1ncnc2nc(-c3cnn4ccc(N5CCC[C@@H]5c5cc(F)ccc5F)nc34)[nH]c12` [Compound 87, (R)-8-(5-(2-(2,5-difluorophenyl)pyrrolidin-1-yl)pyrazolo[1,5-a]pyrimidin-3-yl)-7H-purin-6-amine] and `Oc1ncnc2nc(-c3cnn4ccc(N5CCC[C@@H]5c5cc(F)ccc5F)nc34)[nH]c12` [Compound 88, (R)-8-(5-(2-(2,5-difluorophenyl)pyrrolidin-1-yl)pyrazolo[1,5-a]pyrimidin-3-yl)-7H-purin-6-ol] are within 0.2 log units of each other in pIC50: 9.14 for the first, 9.11 for the second.

Going from `COc1cc2nc(-c3cnn4ccc(N5CCC[C@@H]5c5cc(F)ccc5F)nc34)[nH]c2cc1C(N)=O` [Compound 91, (R)-2-(5-(2-(2,5-difluorophenyl)pyrrolidin-1-yl)pyrazolo[1,5-a]pyrimidin-3-yl)-5-methoxy-1H-benzo[d]imidazole-6-carboxamide] to `Fc1ccc(F)c([C@H]2CCCN2c2ccn3ncc(-c4nc5cc(Cl)c(Cl)cc5[nH]4)c3n2)c1` [Compound 105, (R)-3-(5,6-dichloro-1H-benzo[d]imidazol-2-yl)-5-(2-(2,5-difluorophenyl)pyrrolidin-1-yl)pyrazolo[1,5-a]pyrimidine], the pIC50 falls from 9.59 to 7.48 (2.11 log units). The first is the more potent here.

Compared with `Fc1ccc(F)c([C@H]2CCCN2c2ccn3ncc(-c4nc5cccc(Cl)c5[nH]4)c3n2)c1` [Compound 97, (R)-3-(7-chloro-1H-benzo[d]imidazol-2-yl)-5-(2-(2,5-difluorophenyl)pyrrolidin-1-yl)pyrazolo[1,5-a]pyrimidine], `Fc1ccc(F)c([C@H]2CCCN2c2ccn3ncc(-c4nc5cc(F)cc(Cl)c5[nH]4)c3n2)c1` [Compound 98, (R)-3-(7-chloro-5-fluoro-1H-benzo[d]imidazol-2-yl)-5-(2-(2,5-difluorophenyl)pyrrolidin-1-yl)pyrazolo[1,5-a]pyrimidine] is 0.66 log units lower in pIC50: 8.72 for the first, 8.06 for the second. The first is the more potent here.

Going from `COc1cccc2oc(-c3cnn4ccc(N5CCC[C@@H]5c5cc(F)ccc5F)nc34)nc12` [Compound 100, (R)-2-(5-(2-(2,5-difluorophenyl)pyrrolidin-1-yl)pyrazolo[1,5-a]pyrimidin-3-yl)-4-methoxybenzo[d]oxazole] to `Fc1ccc(F)c([C@H]2CCCN2c2ccn3ncc(-c4nc5cccc(OC(F)(F)F)c5[nH]4)c3n2)c1` [Compound 113, (R)-5-(2-(2,5-difluorophenyl)pyrrolidin-1-yl)-3-(7-(trifluoromethoxy)-1H-benzo[d]imidazol-2-yl)pyrazolo[1,5-a]pyrimidine], the pIC50 falls from 9.00 to 8.17 (0.83 log units).

Going from `Fc1ccc(F)c([C@H]2CCCN2c2ccn3ncc(-c4nc5ncc(Cl)c(Cl)c5[nH]4)c3n2)c1` [Compound 102, (R)-6,7-dichloro-2-(5-(2-(2,5-difluorophenyl)pyrrolidin-1-yl)pyrazolo[1,5-a]pyrimidin-3-yl)-1H-imidazo[4,5-b]pyridine] to `Fc1ccc(F)c([C@H]2CCCN2c2ccn3ncc(-c4nc5c(Cl)ccc(Cl)c5[nH]4)c3n2)c1` [Compound 104, (R)-3-(4,7-dichloro-1H-benzo[d]imidazol-2-yl)-5-(2-(2,5-difluorophenyl)pyrrolidin-1-yl)pyrazolo[1,5-a]pyrimidine], the pIC50 falls from 8.15 to 7.87 (0.28 log units). The first is the more potent here.

First: Cc1nccc2nc(-c3cnn4ccc(N5CCC[C@@H]5c5cc(F)ccc5F)nc34)[nH]c12 [Compound 103, (R)-2-(5-(2-(2,5-difluorophenyl)pyrrolidin-1-yl)pyrazolo[1,5-a]pyrimidin-3-yl)-4-methyl-3H-imidazo[4,5-c]pyridine]
Second: Fc1ccc(F)c([C@H]2CCCN2c2ccn3ncc(-c4nc5ccc(C(F)(F)F)nc5[nH]4)c3n2)c1 [Compound 114, (R)-2-(5-(2-(2,5-difluorophenyl)pyrrolidin-1-yl)pyrazolo[1,5-a]pyrimidin-3-yl)-5-(trifluoromethyl)-3H-imidazo[4,5-b]pyridine]
The pIC50 of the first is 0.50 log units higher: 8.92 for the first, 8.42 for the second. The first is the more potent here.

Compared with `Fc1ccc(F)c([C@H]2CCCN2c2ccn3ncc(-c4nc5ncc(C(F)(F)F)cc5[nH]4)c3n2)c1` [Compound 110, (R)-2-(5-(2-(2,5-difluorophenyl)pyrrolidin-1-yl)pyrazolo[1,5-a]pyrimidin-3-yl)-6-(trifluoromethyl)-1H-imidazo[4,5-b]pyridine], `Fc1ccc(F)c([C@H]2CCCN2c2ccn3ncc(-c4nc5cc(F)cc(F)c5o4)c3n2)c1` [Compound 111, (R)-2-(5-(2-(2,5-difluorophenyl)pyrrolidin-1-yl)pyrazolo[1,5-a]pyrimidin-3-yl)-5,7-difluorobenzo[d]oxazole] is 0.44 log units lower in pIC50: 8.72 for the first, 8.28 for the second. The first is the more potent here.
